Data as given in patent US11931376B1, “Methods for the treatment of chronic kidney disease” (RENATUS INC., priority 2022, dated 2024).

How the values were obtained:
Murine mesangial cells = assay: Cholesterol efflux in kidney mesangial cells (flow cytometry); type: cell-based, C57BL/6 mice; settings: mesangial cells loaded with NBD-CC for 3 hours, cyclodextrin 5 mg/ml
Procedure: Murine mesangial cells derived from the kidney of wild-type C57BL/6 mice were maintained in DMEM, 10% fetal bovine serum (FBS), 100 U/ml penicillin G, 100 μg/ml streptomycin, and 2 mM L-glutamine. The cells were seeded at a density of 10^6 cells/well one day before treatment with NBD-CC. The cells were treated with 100 μg of NBD-CC per 10^6 cells for 3 hours and then washed thoroughly twice. Then, cyclodextrins were treated at a concentration of 5 mg/ml. For the assessment of cholesterol efflux and efflux-mediating proteins ABCA1 and ABCG1, flow cytometry was performed.

[1] = system: red blood cells (whole blood); assay: Hemolysis assay; type: cell-based, C57/BL6 mice; settings: cyclodextrin 50 mg/ml, 1 hour, 37° C., absorbance at 540 nm
Procedure: Whole blood from wilt-type C57/BL6 mice was used for assessment of hemolytic activity of cyclodextrins. The whole blood samples (300 μl) were mixed with each cyclodextrin at a concentration of 50 mg/ml and incubated for 1 hour at 37° C. After centrifugation at 3,000 g for 5 minutes, the absorbance at 540 nm of the supernatant was measured.

[2] = system: macrophage cell line (Raw264.7); assay: Cell viability assay (CCK-8); type: cell-based; settings: cyclodextrin 20 mg/ml, 24 hours, 37° C.
Procedure: The cells were seeded in a 96-well plate at a density of 5×10^4 cells and 24 hours later cyclodextrin were treated at a concentration of 20 mg/ml for 24 hours at 37° C. CCK-8 agent was added, 10 μl per well. After 3 hours, absorbance at 450 nm was measured to assess cellular viability.

albuminuria = assay: Albuminuria in diabetic kidney disease mouse model; type: in vivo, db/db mice; settings: subcutaneous 2 g/kg twice a week for 4 weeks
Procedure: To investigate the effects of cyclodextrins on albuminuria, 8-week-old male db/db mice were used to model diabetes type II, which is susceptible to albuminuria. In the experimental setup, Oligo-GCD (4103 Da), Oligo-HPGCD (3825 Da) and HPBCD-B were subcutaneously injected at a dose of 2 g/kg twice a week for 4 weeks. Control mice were given PBS only. After the treatment is completed, 24-hour urine samples were collected and the concentration of albumin in the urine was measured (FIG. 8A).

SMILES	cellular cholesterol content (Murine mesangial cells) [%]	hemolytic activity [1]	cell viability [2]	ACR reduction compared to control (albuminuria) [%]	albumin/creatinine ratio (ACR) (albuminuria; urine at end of week 4) [µg/mg]
CC(O)COC[C@H]1O[C@@H]2O[C@H]3[C@H](O)[C@@H](O)[C@@H](O[C@H]4[C@H](O)[C@@H](O)[C@@H](O[C@H]5[C@H](O)[C@@H](O)[C@@H](O[C@H]6[C@H](O)[C@@H](O)[C@@H](O[C@H]7[C@H](O)[C@@H](O)[C@@H](O[C@H]8[C@H](O)[C@@H](O)[C@@H](O[C@H]1[C@H](O)[C@H]2O)O[C@@H]8COCC(C)O)O[C@@H]7COCC(C)O)O[C@@H]6COCC(C)O)O[C@@H]5COCC(C)O)O[C@@H]4COCC(C)O)O[C@@H]3COCC(C)O (single isomer, unassigned) [HPBCD-A, hydroxypropyl-beta-cyclodextrin]	54.1	disrupt the plasma membrane and induce hemolysis	induce cell viability loss	–	–
CC(O)COC[C@H]1O[C@@H]2O[C@H]3[C@H](O)[C@@H](O)[C@@H](O[C@H]4[C@H](O)[C@@H](O)[C@@H](O[C@H]5[C@H](O)[C@@H](O)[C@@H](O[C@H]6[C@H](O)[C@@H](O)[C@@H](O[C@H]7[C@H](O)[C@@H](O)[C@@H](O[C@H]8[C@H](O)[C@@H](O)[C@@H](O[C@H]1[C@H](O)[C@H]2O)O[C@@H]8COCC(C)O)O[C@@H]7COCC(C)O)O[C@@H]6COCC(C)O)O[C@@H]5COCC(C)O)O[C@@H]4COCC(C)O)O[C@@H]3COCC(C)O (single isomer, unassigned) [HPBCD-C, hydroxypropyl-beta-cyclodextrin]	50.5	disrupt the plasma membrane and induce hemolysis	induce cell viability loss	–	–
CC(O)COC[C@H]1O[C@@H]2O[C@H]3[C@H](O)[C@@H](O)[C@@H](O[C@H]4[C@H](O)[C@@H](O)[C@@H](O[C@H]5[C@H](O)[C@@H](O)[C@@H](O[C@H]6[C@H](O)[C@@H](O)[C@@H](O[C@H]7[C@H](O)[C@@H](O)[C@@H](O[C@H]8[C@H](O)[C@@H](O)[C@@H](O[C@H]1[C@H](O)[C@H]2O)O[C@@H]8COCC(C)O)O[C@@H]7COCC(C)O)O[C@@H]6COCC(C)O)O[C@@H]5COCC(C)O)O[C@@H]4COCC(C)O)O[C@@H]3COCC(C)O (single isomer, unassigned) [HPBCD-B, hydroxypropyl-beta-cyclodextrin]	48.2	disrupt the plasma membrane and induce hemolysis	induce cell viability loss	22.6	190.9
